Tested on: gastric corpus mucosa cells
Experiment: MTT: Cell Damaging and Protecting Effect Test
Type: cell-based, male Japanese White rabbit
Details: rabbit gastric mucosa cells, 10^-4 M, 4 hours; smaller value is better; 100 µM
Source text: MTT: Cell Damaging and Protecting Effect Test
It is confirmed that there is no toxicity in cell level. Those having toxicity in cell level are inappropriate as an anti-ulcer drug.
A male Japanese White rabbit (2.5 to 3 kg) was anesthetized to death by Nembutal™ and, immediately thereafter, its stomach was removed. The greater curvature of the stomach was incised so as to remove the stomach contents therefrom. After the mucosal surface was washed with HBSS (Hank's Balanced Salt Solution), the stomach in ice-cooled HBSS was transferred to a laboratory. Then, after the pyloric antrum was removed, the gastric corpus mucosa was separated by a spatula and then minced into 2 to 3 mm pieces in BME (Basal Medium Eagle). Thereafter, these pieces were shaken at 120 to 130 cycles/minute for 15 minutes at 37° C. in BME 60 ml containing 280 U/ml of dispase and 30 to 50 U/mil of collagenase. Here, the concentration of collagenase was appropriately changed for each lot in view of the state of cells. The pieces were washed twice with EBSS (Earle's Balanced Salt Solution) containing 1 mM of EDTA and then shaken in MEM (Minimum Essential Medium) containing 1 mM of EDTA at 37° C. for 5 minutes. Subsequently, they were shaken in the dispase and collagenase having the same concentrations as those mentioned above for 15 minutes so as to remove the supernatant and then further shaken at 37° C. for 50 to 60 minutes at 120 to 130 cycles/minute. Then, after being washed twice with HBSS, Ham F12 containing 2% of Ultrocer G™ was used to attain the concentration of 1×10^6 cells/ml. Thus formed suspension was dispensed in each well of a 96-well plate by 200 μl. The plate was incubated in the atmosphere composed of 5% CO2 and 95% air at 37° C. for three days so as to attain a confluent state and then subjected to MTT assay.
The sample compound was dissolved in DMSO so as to attain a concentration of 10^-2 M and then diluted with HBSS containing 2% of Ultrocer G™ so as to attain a final concentration of 10^-4 M. To each group, which 8 wells were used for, 10 μl of MTT reagent was added immediately after 100 μl of the medium in each well was exchanged for same volume of the resulting solution of the sample compound. After being incubated in an atmosphere composed of 5% CO2 and 95% air at 37° C. for 4 hours, thus formed solution was centrifuged and then its supernatant was discarded. Subsequently, 100 μl of 100% ethanol was added to the residue so as to dissolve MTT formazan. Then, the absorbance (OD: 570 to 630) was measured by a microplate reader. This method utilizes a phenomenon in which MTT is changed to MTT formazan only by mitochondria of living cells so as to change color.
The cell damaging or cell protecting effect of the sample compound at the final concentration of 10^-4 M was expressed as cell damaging rate (%) as follows:
cell damaging rate (%)={1-(absorbance in sample group/absorbance in control group)}×100
Accordingly, the smaller value is better in the cell damaging rate.

For `CC(C)c1ccc(C(=O)Nc2nnc(SCCN(C(C)C)C(C)C)s2)cc1` [Example 2, 2-(4-isopropylbenzoyl)amino-5-diisopropylaminoethylthio-1,3,4-thiadiazole], the “MTT: cell damaging rate” value was -77%.

Reference: patent US5912258A, “Thiadiazoleamide derivative and anti-ulcer drug” (Shiseido Co., Ltd., priority 1998, dated 1999)
